According to patent US8329904B2, “Azacyclic derivatives” (Hoffmann-La Roche Inc., priority 2009, dated 2012):

Target: T1, human HSL (Homo sapiens, UniProt Q05469)
T1 construct: overlapping PCR to generate a full length human HSL ORF with a 3′-His6 tag; His6 (C); made in house; host or cells: High 5 insect cells (baculovirus, pFast-BAC)
T1 sequence (Q05469 1-1076): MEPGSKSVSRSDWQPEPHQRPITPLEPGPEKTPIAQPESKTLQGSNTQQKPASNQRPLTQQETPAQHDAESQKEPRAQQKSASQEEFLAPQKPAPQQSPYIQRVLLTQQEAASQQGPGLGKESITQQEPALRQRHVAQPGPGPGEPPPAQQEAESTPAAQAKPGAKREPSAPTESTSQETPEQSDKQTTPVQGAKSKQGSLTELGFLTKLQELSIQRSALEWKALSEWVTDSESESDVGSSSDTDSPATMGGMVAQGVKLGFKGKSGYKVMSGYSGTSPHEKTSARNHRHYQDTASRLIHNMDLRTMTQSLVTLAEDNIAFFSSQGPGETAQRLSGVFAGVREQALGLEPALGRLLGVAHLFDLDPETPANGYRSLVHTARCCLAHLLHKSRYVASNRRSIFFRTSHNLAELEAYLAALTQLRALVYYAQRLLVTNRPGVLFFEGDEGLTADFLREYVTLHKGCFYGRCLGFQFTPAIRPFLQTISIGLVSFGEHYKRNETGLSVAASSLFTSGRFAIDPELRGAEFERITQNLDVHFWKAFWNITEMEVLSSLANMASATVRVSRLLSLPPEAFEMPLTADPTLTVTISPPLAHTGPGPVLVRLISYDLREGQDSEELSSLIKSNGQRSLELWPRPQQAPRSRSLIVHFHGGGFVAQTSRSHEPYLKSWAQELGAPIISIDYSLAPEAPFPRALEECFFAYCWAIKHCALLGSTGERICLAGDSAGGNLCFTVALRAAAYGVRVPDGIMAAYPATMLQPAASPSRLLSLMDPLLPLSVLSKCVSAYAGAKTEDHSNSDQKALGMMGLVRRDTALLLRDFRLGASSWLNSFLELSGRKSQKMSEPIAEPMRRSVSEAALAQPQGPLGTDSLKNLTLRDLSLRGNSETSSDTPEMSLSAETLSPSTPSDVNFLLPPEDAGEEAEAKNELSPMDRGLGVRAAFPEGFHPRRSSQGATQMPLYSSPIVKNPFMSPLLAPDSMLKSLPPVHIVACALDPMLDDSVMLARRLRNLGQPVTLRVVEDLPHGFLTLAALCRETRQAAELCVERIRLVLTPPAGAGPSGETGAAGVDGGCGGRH
Experiment: Human Hormone-Sensitive Lipase (HSL) Enzyme Inhibition Assay
Type: biochemical
Conditions: colorimetric assay, 2,3-dimercapto-1-propanol tributyrate (DMPT) substrate, 37° C. for 20 minutes, absorbance at 405 nm; read-out: HSL hum IC50
How it was run: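 Colorimetric thioester hydrolysis: compounds in DMSO series mixed with DMPT (1.5 mM) in MOPS pH 7.2 with BSA, then baculovirus-expressed His6-tagged full-length human HSL added, 37° C, 20 min. DTNB plus detergents added, 15 min room temperature, absorbance at 405 nm.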

Structure (SMILES) | IC50 [nM]
O=C1N(c2ccc(OCCC(F)(F)F)nc2)CCC12CCN(S(=O)(=O)c1ccccc1Cl)CC2 [Example 116, 8-(2-Chloro-benzenesulfonyl)-2-[6-(3,3,3-trifluoro-propoxy)-pyridin-3-yl]-2,8-diaza-spiro[4.5]decan-1-one] | 110
O=C(NCc1ccccc1Cl)N1CCC2(CC1)CCN(c1ccc(OC(F)(F)F)cc1)C2=O [Example 262, 1-Oxo-2-(4-trifluoromethoxy-phenyl)-2,8-diaza-spiro[4.5]decane-8-carboxylic acid 2-chloro-benzylamide] | 340
CCN(Cc1ccncc1)C(=O)N1CCC2(CC1)CCN(c1ccc(OC(F)(F)F)cc1)C2=O [Example 307, 1-Oxo-2-(4-trifluoromethoxy-phenyl)-2,8-diaza-spiro[4.5]decane-8-carboxylic acid ethyl-pyridin-4-ylmethyl-amide] | 350
COc1ccc(N2CCC3(CCN(S(=O)(=O)c4ccccc4)CC3)C2=O)nn1 [Example 16, 8-Benzenesulfonyl-2-(6-methoxy-pyridazin-3-yl)-2,8-diaza-spiro[4.5]decan-1-one] | 15000
O=C1N(c2ccc(OC(F)(F)F)cc2)CCC12CCN(S(=O)(=O)c1ccccc1C(F)(F)F)CC2 [Example 68, 2-(4-Trifluoromethoxy-phenyl)-8-(2-trifluoromethyl-benzenesulfonyl)-2,8-diaza-spiro[4.5]decan-1-one] | 40
CN(C(=O)N1CCC2(CC1)CCN(c1ccc(OC(F)(F)F)cc1)C2=O)c1cccc(F)c1 [Example 280, 1-Oxo-2-(4-trifluoromethoxy-phenyl)-2,8-diaza-spiro[4.5]decane-8-carboxylic acid (3-fluoro-phenyl)-methyl-amide] | 90
CN(C(=O)N1CCC2(CC1)CCN(c1ccc(OC(F)(F)F)cc1)C2=O)C1CCCCC1 [Example 276, 1-Oxo-2-(4-trifluoromethoxy-phenyl)-2,8-diaza-spiro[4.5]decane-8-carboxylic acid cyclohexyl-methyl-amide] | 70

Other lines, results leading:

IC50 [nM] | Structure (SMILES)
450 | CC(C)CS(=O)(=O)N1CCC2(CCN(c3ccc(C(O)C(F)F)cc3)C2=O)CC1 (stereo not drawn) [Example 177, 2-(4-(2,2-difluoro-1-hydroxyethyl)phenyl)-8-(isobutylsulfonyl)-2,8-diazaspiro[4.5]decan-1-one]
220 | CC(C)CS(=O)(=O)N1CCC2(CCN(c3ccc(OS(=O)(=O)C4CC4)cc3)C2=O)CC1 [Example 64, Cyclopropanesulfonic acid 4-[8-(2-methyl-propane-1-sulfonyl)-1-oxo-2,8-diaza-spiro[4.5]dec-2-yl]-phenyl ester]
26000 | O=C1N(c2cccnc2)CCC12CCN(S(=O)(=O)c1ccccc1)CC2 [Example 12, 8-Benzenesulfonyl-2-pyridin-3-yl-2,8-diaza-spiro[4.5]decan-1-one]
40 | CC(Oc1ccc(N2CCC3(CCN(S(=O)(=O)c4ccccc4C(F)(F)F)CC3)C2=O)cc1)C(F)(F)F (stereo not drawn) [Example 100, 8-(2-Trifluoromethyl-benzenesulfonyl)-2-[4-(2,2,2-trifluoro-1-methyl-ethoxy)-phenyl]-2,8-diaza-spiro[4.5]decan-1-one]
80 | CC(C)CS(=O)(=O)N1CCC2(CCN(c3ccc(OC(F)(F)F)cc3)C2=O)CC1 [Example 18, 8-(2-Methyl-propane-1-sulfonyl)-2-(4-trifluoromethoxy-phenyl)-2,8-diaza-spiro[4.5]decan-1-one]
40 | CC(Oc1ccc(N2CCC3(CCN(S(=O)(=O)c4ccccc4C(F)(F)F)CC3)C2=O)cc1)C(F)(F)F (stereo not drawn) [Example 101]
40 | O=C1N(c2ccc(OC(F)(F)F)cc2)CCC12CCN(S(=O)(=O)c1cccnc1NCCO)CC2 [Example 192, 8-[2-(2-Hydroxy-ethylamino)-pyridine-3-sulfonyl]-2-(4-trifluoromethoxy-phenyl)-2,8-diaza-spiro[4.5]decan-1-one]
30 | O=C1N(c2ccc(OCC(F)(F)F)cc2)CCC12CCN(S(=O)(=O)c1cccnc1Cl)CC2 [Example 206, 8-(2-Chloro-pyridine-3-sulfonyl)-2-[4-(2,2,2-trifluoro-ethoxy)-phenyl]-2,8-diaza-spiro[4.5]decan-1-one]
